Experimental data: US7767658B2 (priority 2003, dated 2010)

What was measured:
[1] = tested on: spleen cells stimulated with the whole inactivated virus; assay type: in vivo, BALB/c mice; conditions: after stimulation with inactivated virus; mice given ethyl DOPC in addition to the antigen
[2] = tested on: spleen cells secreting γ-interferon; assay type: in vivo, BALB/c mice; conditions: after restimulation with inactivated SARS virus; in response to some of the peptides used

CCCCCCCC/C=C\CCCCCCCC(=O)OC[C@@H](COP(=O)(OCC)OCC[N+](C)(C)C)OC(=O)CCCCCCC/C=C\CCCCCCCC (stereo partly drawn) [ethyl DOPC, 1,2-dioleoyl-sn-glycero-3-ethylphosphocholine]
production of IL-5 (in words) [1]: not clearly modified
production of γ-IFN (in words) [1]: considerably increased
production of γ-interferon (ELISPOT after restimulation) [2]: increased
